pIC50: −log10 of the molar value.

Data set [1] relates to Plasmodium berghei ANKA strain. Nature of the data set: Rapid mouse coma behavior scale (RMCBS) score of cerebral malaria model mice. It counts as in vivo, C57BL/6J mice. The source says:
(§1) Experimental study on the antimalarial activity of Artesunazine (Example Ia-1) in vitro and vivo. I. Protection of Artesunazine on mice infected by Plasmodium berghei ANKA strain. (I) Experimental materials: • 1. Animals: C57BL/6J, weighing 16-18 g, 10 in each group, 50 in total. • 2. Plasmodium strain: Plasmodium berghei ANKA strain, donated by Professor Zhao Ya of Air Force Medical University of the People's Liberation Army of China (The Fourth Military Medical University), was preserved in our laboratory by blood transmission or freezing. • 3. Drugs and preparation methods: Artesunazine and a positive control drug artesunate were dissolved in a mixed solvent of polyethylene glycol 400 (PEG400) and water (PEG400:water=4:1), serving as a preparation for immediate use. (II) Experimental methods • 1. Plasmodium resuscitation and passage: A Plasmodium berghei ANKA strain frozen in liquid nitrogen was taken out and placed in a water bath kettle at 37°C. After melting, it was immediately intraperitoneally inoculated into C57BL/6J mice (0.2 mL/mouse). When the infection rate of the breeding mice reached 15-30%, their eyeballs were removed and blood was collected in an anticoagulant tube. After shaking well, the blood was transmitted to offspring C57BL/6J mice with a 1 mL syringe at an injection dose of 0.2 mL/mouse. • 2. Plasmodium inoculation: C57BL/6J mice were weighed and fed adaptively. When the infection rate of offspring C57BL/6J mice reached 15-30%, the total number of red blood cells and the number of pRBCs were counted after their eyeballs were removed and blood was collected. The blood was injected intraperitoneally into model group C57BL/6J mice at an injection dose of 0.2 mL (including 1×10^7 pRBCs) per mouse, which was the 0th day (D0) of inoculation. • 3. Animal grouping: After inoculation, the experimental mice were randomly divided into 5 groups, including a model (M) group, high, medium and low dose Artesunazine groups (i.e., 40 mg/kg, 20 mg/kg, and 10 mg/kg Artesunazine), and an artesunate group (i.e., 15.6 mg/kg AS, clinically equivalent dose). The dosage of the medium dose Artesunazine group (20mg/kg Artesunazine) is equivalent to that of the artesunate group (15.6 mg/kg). There are 10 mice in each group, a total of 50 mice. • 4. Determination of survival rate From the 0th day of inoculation, the death of mice was observed every day for 28 consecutive days. Survival rate = (Number of surviving mice)/(Number of experimental mice) × 100% [formula] • 5. Determination of recurrence rate After inoculation, the mice were randomly divided into groups and administered via nasal drip for 3 h. […] The mouse recurrence rate was calculated by the ratio of the number of mice with recurrence to the total number of mice. […]

Data set [2] relates to Plasmodium berghei ANKA strain. Nature of the data set: Survival rate of cerebral malaria model mice. It counts as in vivo, C57BL/6J mice. Conditions: nasal drip, four consecutive days, 28 days of observation.
From the text: as §1

Data set [3] deals with Plasmodium berghei ANKA strain. Nature of the data set: Recurrence rate of cerebral malaria model mice (blood smear). It counts as in vivo, C57BL/6J mice. The source says:
Experimental study on the antimalarial activity of Artesunazine (Example Ia-1) in vitro and vivo. I. Protection of Artesunazine on mice infected by Plasmodium berghei ANKA strain. (I) Experimental materials: • 1. Animals: C57BL/6J, weighing 16-18 g, 10 in each group, 50 in total. • 2. Plasmodium strain: Plasmodium berghei ANKA strain, donated by Professor Zhao Ya of Air Force Medical University of the People's Liberation Army of China (The Fourth Military Medical University), was preserved in our laboratory by blood transmission or freezing. • 3. Drugs and preparation methods: Artesunazine and a positive control drug artesunate were dissolved in a mixed solvent of polyethylene glycol 400 (PEG400) and water (PEG400:water=4:1), serving as a preparation for immediate use. (II) Experimental methods • 1. Plasmodium resuscitation and passage: A Plasmodium berghei ANKA strain frozen in liquid nitrogen was taken out and placed in a water bath kettle at 37°C. After melting, it was immediately intraperitoneally inoculated into C57BL/6J mice (0.2 mL/mouse). When the infection rate of the breeding mice reached 15-30%, their eyeballs were removed and blood was collected in an anticoagulant tube. After shaking well, the blood was transmitted to offspring C57BL/6J mice with a 1 mL syringe at an injection dose of 0.2 mL/mouse. • 2. Plasmodium inoculation: C57BL/6J mice were weighed and fed adaptively. When the infection rate of offspring C57BL/6J mice reached 15-30%, the total number of red blood cells and the number of pRBCs were counted after their eyeballs were removed and blood was collected. The blood was injected intraperitoneally into model group C57BL/6J mice at an injection dose of 0.2 mL (including 1×10^7 pRBCs) per mouse, which was the 0th day (D0) of inoculation. • 3. Animal grouping: After inoculation, the experimental mice were randomly divided into 5 groups, including a model (M) group, high, medium and low dose Artesunazine groups (i.e., 40 mg/kg, 20 mg/kg, and 10 mg/kg Artesunazine), and an artesunate group (i.e., 15.6 mg/kg AS, clinically equivalent dose). The dosage of the medium dose Artesunazine group (20mg/kg Artesunazine) is equivalent to that of the artesunate group (15.6 mg/kg). There are 10 mice in each group, a total of 50 mice. • 4. Determination of survival rate From the 0th day of inoculation, the death of mice was observed every day for 28 consecutive days. Survival rate = (Number of surviving mice)/(Number of experimental mice) × 100% [formula] • 5. Determination of recurrence rate After inoculation, the mice were randomly divided into groups and administered via nasal drip for 3 h. After four consecutive days of administration, blood smear test began at D4. A small drop of blood was taken from the tail tip of a mouse and dropped onto a glass slide. The blood drop was pushed to one end at a certain angle with the edge of another glass slide to make a thin blood film with appropriate thickness. After the thin blood film was air-dried, it was fixed with methanol and placed until completely air-dried. After a Giemsa stain solution was diluted at a ratio of 1:9 for staining (completely covering the fixed thin blood film) for 20 min, the thin blood film was rinsed under a faucet, and the water on the surface of the film was quickly absorbed with filter paper. A drop of cedar oil was dropped onto a glass slide for examination under a 100x oil microscope to count the number of parasitized red blood cells contained in 1000 red blood cells. The mouse recurrence rate was calculated by the ratio of the number of mice with recurrence to the total number of mice. Recurrence rate = (Number of mice with recurrence)/(Number of experimental mice) × 100% [formula] • 6. RMCBS score determination A rapid mouse coma behavior scale (RMCBS) was used to evaluate the neurological function of experimental mice. […]

Data set [4] concerns Plasmodium berghei ANKA strain. Nature of the data set: Body weight of cerebral malaria model mice. It counts as in vivo, C57BL/6J mice.
From the text: as §1

In data set [5] the test system is Plasmodium berghei ANKA strain. Nature of the data set: Anal temperature of cerebral malaria model mice. Format: in vivo, C57BL/6J mice. Conditions: compared with the AS group (P<0.001). The source says: Experimental study on the antimalarial activity of Artesunazine (Example Ia-1) in vitro and vivo. I. Protection of Artesunazine on mice infected by Plasmodium berghei ANKA strain. (I) Experimental materials: • 1. Animals: C57BL/6J, weighing 16-18 g, 10 in each group, 50 in total. • 2. Plasmodium strain: Plasmodium berghei ANKA strain, donated by Professor Zhao Ya of Air Force Medical University of the People's Liberation Army of China (The Fourth Military Medical University), was preserved in our laboratory by blood transmission or freezing. • 3. Drugs and preparation methods: Artesunazine and a positive control drug artesunate were dissolved in a mixed solvent of polyethylene glycol 400 (PEG400) and water (PEG400:water=4:1), serving as a preparation for immediate use. (II) Experimental methods • 1. Plasmodium resuscitation and passage: A Plasmodium berghei ANKA strain frozen in liquid nitrogen was taken out and placed in a water bath kettle at 37°C. After melting, it was immediately intraperitoneally inoculated into C57BL/6J mice (0.2 mL/mouse). […] When the infection rate of offspring C57BL/6J mice reached 15-30%, the total number of red blood cells and the number of pRBCs were counted after their eyeballs were removed and blood was collected. […] The mouse recurrence rate was calculated by the ratio of the number of mice with recurrence to the total number of mice. […]

Data set [6] relates to Plasmodium falciparum 3D7. Nature of the data set: SYBR Green assay, growth inhibition of Plasmodium falciparum cultured in vitro. It counts as cell-based. The note with it: Plasmodium falciparum standard strain 3D7, cultured for 72 h; read-out: IC50. On the procedure:
Plasmodium falciparum in the ring stage was synchronized. Smearing was carried out and the infection rate was counted. The synchronized parasitized red blood cells, healthy red blood cells and mediums were matched in a reasonable ratio, resulting in an in vitro culture system of plasmodia (ring bodies, 2 to 4 hours-old) with a hematocrit of 2% and an infection rate of 1%. […] A1-A10 was paved with 25 µl of drugs (with 8 complex wells for each drug) and mixed evenly, and then diluted in multiple proportions (Ax-Hx). Except for A12-H12, 50 µL of a plasmodium culture solution was spread in all the other wells; and A12-H12 was spread with 50 µl of healthy red blood cells (in the medium with a hematocrit of 2%). […] 100 µl of a lysis buffer was added to each of the wells and put into a drawer to avoid light for 1 h.
In this experiment, SYBR Green assay was used to determine the median inhibitory concentration (IC50) value of the drug for treating Plasmodium falciparum 3D7. Nonlinear regression was used to calculate the value by means of software graphpad prism 8.0 (the value was equal to average value plus or minus standard error), and a four-parameter logistic fitting curve was used. Each value in the curve was equal to average value plus or minus standard error in eight biological repetitive experiments.

For data set [7] the following is noted: 80% polyethylene glycol 400 solution, 40°C, dark.
Procedure: 160.2 mg of Artesunazine was weighed and put into a penicillin bottle, 8 mL of a 80% polyethylene glycol 400 solution was added, and the Artesunazine was completely dissolved by ultrasonic treatment, resulting in about 20.25 mg/mL Artesunazine solution. Subsequently, the penicillin bottle filled with the solution was sealed, covered with aluminum foil paper for light avoidance treatment, and placed in a stability test box at 40°C; and 0.5 mL to 25 mL of the solution was sampled into volumetric flasks on days 0, 3, 7, and 10, respectively. After diluting with methanol and shaking well, the content of the Artesunazine was determined by an ultra performance liquid chromatography (UPLC) method.
The UPLC determination conditions for the Artesunazine are as follows: Instrument: ultra performance liquid chromatography Waters ACQUITY UPLC, chromatographic column: ACQUITY UPLC HSS T3 Column (100 Å, 1.8 µm, 2.1 mm×100 mm), detection wavelength: 295 nm, mobile phase: acetonitrile-0.1% phosphoric acid water (35:65), flow rate: 0.3 ml/min, column temperature: 30°C, sample room temperature: 25°C, injection volume: 3 µL. […]

Usually pIC50 stands for the IC50 on a negative log10 scale, so that one unit is a factor of ten. Consider `Cc1nc(C)c(COC(=O)CCC(=O)OC2OC3OC4(C)CCC5C(C)CCC(C2C)C35OO4)nc1C` [Compound Ia-1, (3R, 5aS, 6R, 9R, 10R, 12R, 12aR)-3,6,9-trimethyldecahydro-12h-3, 12-epoxy [1, 2] dioxopyran [4,3-i] isobenzopyran-10-yl ((3,5,6-trimethylpyrazine-2-yl)methyl) succinate], for which the RMCBS score in data set [1] (10 mg/kg) is on record as 18.40±0.48 points; in data set [1] (20 mg/kg), “around 20 points”; in data set [1] (40 mg/kg), “around 20 points”. For the same molecule, the survival rate is listed as 50% in data set [2] (10 mg/kg Artesunazine (low dose)), 90% in data set [2] (20 mg/kg Artesunazine (medium dose)) and 100% in data set [2] (40 mg/kg Artesunazine (high dose)). Further, the entries for the “Recurrence rate (%) D4” value in data set [3] (10 mg/kg), in data set [3] (20 mg/kg) and in data set [3] (40 mg/kg) were 10%, 0% and 0%, respectively. Also, the “Recurrence rate (%) D7” value in data set [3] (10 mg/kg, D7) is 80%. Besides, the “Recurrence rate (%) D28” value is listed as 100% in data set [3] (10 mg/kg), 10% in data set [3] (20 mg/kg) and 10% in data set [3] (40 mg/kg). Further, the body weight is 16.66±0.45 in data set [4] (10 mg/kg, at the end of the observation); “no significant decrease” in data set [4] (20 mg/kg, throughout the observation period); “no significant decrease” in data set [4] (40 mg/kg, throughout the observation period). Further, the temperature result in data set [5] (20 mg/kg) and in data set [5] (40 mg/kg) was “better maintained the temperature” each time. Moreover, the pIC50 in data set [6] is 8.13. In data set [7], the “color of the solution” value is recorded as “basically unchanged”.

On to `Cc1nc(C)c(COC(=O)CC(=O)OC2OC3OC4(C)CCC5C(C)CCC(C2C)C35OO4)nc1C` [Compound Ia-2, (3R, 5aS, 6R, 9R, 10R, 12R, 12aR)-3,6,9-trimethyldecahydro-12h-3, 12-epoxy [1, 2] dioxopyran [4,3-i] isobenzopyran-10-yl ((3,5,6-trimethylpyrazine-2-yl)methyl) malonate], for which the pIC50 in data set [6] is 7.90.

For the molecule `Cc1nc(C)c(COC(=O)CCCC(=O)OC2OC3OC4(C)CCC5C(C)CCC(C2C)C35OO4)nc1C` [Compound Ia-4, (3R, 5aS, 6R, 9R, 10R, 12R, 12aR)-3,6,9-trimethyldecahydro-12h-3, 12-epoxy [1, 2] dioxopyran [4,3-i] isobenzopyran-10-yl ((3,5,6-trimethylpyrazine-2-yl)methyl) glutarate], in data set [6], the pIC50 is 7.47.

Regarding `Cc1nc(C)c(COC(=O)CCCCCC(=O)OC2OC3OC4(C)CCC5C(C)CCC(C2C)C35OO4)nc1C` [Compound Ia-5, (3R, 5aS, 6R, 9R, 10R, 12R, 12aR)-3,6,9-trimethyldecahydro-12h-3, 12-epoxy [1, 2] dioxopyran [4,3-i] isobenzopyran-10-yl ((3,5,6-trimethylpyrazine-2-yl)methyl) pimelate], the pIC50 in data set [6] is 8.53.

Consider `Cc1nc(C)c(COC(=O)CCCCC(=O)OC2OC3OC4(C)CCC5C(C)CCC(C2C)C35OO4)nc1C` [Compound Ia-6, (3R, 5aS, 6R, 9R, 10R, 12R, 12aR)-3,6,9-trimethyldecahydro-12h-3, 12-epoxy [1, 2] dioxopyran [4,3-i] isobenzopyran-10-yl ((3,5,6-trimethylpyrazine-2-yl)methyl) adipate], for which, in data set [6], the pIC50 was 7.84.

Consider `Cc1nc(C)c(COC(=O)CCCCCCC(=O)OC2OC3OC4(C)CCC5C(C)CCC(C2C)C35OO4)nc1C` [Compound Ia-7, (3R, 5aS, 6R, 9R, 10R, 12R, 12aR)-3,6,9-trimethyldecahydro-12h-3, 12-epoxy [1, 2] dioxopyran [4,3-i] isobenzopyran-10-yl ((3,5,6-trimethylpyrazine-2-yl)methyl) suberate], for which the pIC50 in data set [6] was 7.30.

These data come from patent publication EP4810498A1, “MEDICATION FOR TREATING SEVERE MALARIA AND SYNTHESIS METHOD THEREFOR” (Institute of Chinese Materia Medica, China Academy of …, priority 2023, dated 2025).
